Measurements: ChEMBL document CHEMBL5325409, “Exploiting HOPNO-dicopper center interaction to development of inhibitors for human tyrosinase” (Eur J Med Chem, 2023)

Experiments:
Tyrosinase [1] = biological target: T1, Tyrosinase (Homo sapiens, UniProt P14679); type: subcellular, MNT-1, Lysates
T1 sequence (P14679 whole entry): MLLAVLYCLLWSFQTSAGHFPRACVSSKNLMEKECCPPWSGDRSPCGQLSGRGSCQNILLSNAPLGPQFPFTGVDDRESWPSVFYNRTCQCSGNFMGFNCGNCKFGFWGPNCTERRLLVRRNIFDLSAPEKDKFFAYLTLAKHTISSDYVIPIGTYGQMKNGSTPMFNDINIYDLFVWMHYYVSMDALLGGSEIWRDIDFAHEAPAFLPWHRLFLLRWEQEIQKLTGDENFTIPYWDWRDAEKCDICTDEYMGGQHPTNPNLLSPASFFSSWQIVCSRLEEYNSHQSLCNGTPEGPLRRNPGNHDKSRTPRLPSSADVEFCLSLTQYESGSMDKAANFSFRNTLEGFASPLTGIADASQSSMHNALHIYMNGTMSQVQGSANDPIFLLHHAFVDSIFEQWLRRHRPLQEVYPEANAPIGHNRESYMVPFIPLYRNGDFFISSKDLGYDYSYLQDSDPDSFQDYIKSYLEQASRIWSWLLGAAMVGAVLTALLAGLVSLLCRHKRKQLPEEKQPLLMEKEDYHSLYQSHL

Tyrosinase [2] = biological target: T1, Tyrosinase
Description: Competitive inhibition of human recombinant tyrosinase expressed in Sf9 cells using L-DOPA as substrate by Michelis-Menten based analysis

Mushroom tyrosinase = Mushroom tyrosinase (Agaricus bisporus, UniProt O42713+Q00024+C7FF04+C7FF05)
Description: Competitive inhibition of Agaricus bisporus tyrosinase using L-DOPA as substrate by Michelis-Menten based analysis

Tyrosinase [3] = biological target: T1, Tyrosinase; type: cell-based, MNT-1
Description: Inhibition of tyrosinase in human MNT-1 cells assessed as inhibition of melanin production measured after 96 hrs

Tyrosinase [4] = biological target: T2, Tyrosinase (Streptomyces antibioticus, UniProt P07524)
T2 sequence (P07524 whole entry): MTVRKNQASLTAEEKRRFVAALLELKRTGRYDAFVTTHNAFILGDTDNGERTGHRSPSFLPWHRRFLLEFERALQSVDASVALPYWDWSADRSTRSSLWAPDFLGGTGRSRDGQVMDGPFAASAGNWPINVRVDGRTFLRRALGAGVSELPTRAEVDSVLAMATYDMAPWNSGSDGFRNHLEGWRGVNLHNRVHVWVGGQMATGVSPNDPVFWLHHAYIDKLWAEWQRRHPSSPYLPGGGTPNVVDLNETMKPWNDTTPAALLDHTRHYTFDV
Description: Competitive inhibition of Streptomyces antibioticus tyrosinase using L-DOPA as substrate by Michelis-Menten based analysis

Tyrosinase [5] = biological target: T3, Tyrosinase (Mus musculus, UniProt P11344)
T3 sequence (P11344 whole entry): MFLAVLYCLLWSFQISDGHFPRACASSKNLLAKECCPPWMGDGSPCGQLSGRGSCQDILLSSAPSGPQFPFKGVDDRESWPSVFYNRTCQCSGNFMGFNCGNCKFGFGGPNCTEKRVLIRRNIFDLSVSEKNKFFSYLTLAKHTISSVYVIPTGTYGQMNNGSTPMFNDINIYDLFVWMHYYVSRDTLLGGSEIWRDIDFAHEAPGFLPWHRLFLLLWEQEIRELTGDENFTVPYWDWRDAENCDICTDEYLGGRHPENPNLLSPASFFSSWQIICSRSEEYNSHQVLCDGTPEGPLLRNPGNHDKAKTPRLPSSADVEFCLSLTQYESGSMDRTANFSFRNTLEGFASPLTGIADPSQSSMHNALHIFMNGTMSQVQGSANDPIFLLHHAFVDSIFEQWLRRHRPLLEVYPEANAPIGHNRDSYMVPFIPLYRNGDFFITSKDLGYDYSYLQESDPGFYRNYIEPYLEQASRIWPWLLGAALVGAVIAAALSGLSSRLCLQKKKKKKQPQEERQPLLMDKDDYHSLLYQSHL
Description: Inhibition of tyrosinase in mouse B16-F10 cells assessed as inhibition of melanin production measured after 72 hrs

SMILES | IC50 (Tyrosinase [1]) | Ki (Tyrosinase [2]) | Ki (Mushroom tyrosinase) | IC50 (Tyrosinase [3]) | Ki (Tyrosinase [4]) | IC50 (Tyrosinase [5])
Cl.N[C@H](Cc1ccc(=O)n(O)c1)C(=O)O | 277 µM | 76 µM | 12.8 µM | > 400 µM | 16 µM | 
O=c1ccc(CO)cn1O |  | 7.5 µM | 1.2 µM |  | 4.1 µM | 61.2 µM
Cl.N[C@@H](Cc1ccc(=O)n(O)c1)C(=O)O | 73.6 µM | 8 µM | 12.5 µM | > 400 µM | 39 µM | 
Cl.NC(Cc1ccc(=O)n(O)c1)C(=O)O (racemic) | 90 µM | 6 µM | 1.2 µM | > 400 µM | 42 µM | 10 µM
